# Measurements reported in patent publication US12357711B2, “PSMA binding dual mode radiotracer and therapeutic” (Technische Universität München, priority 2019, dated 2025).
# Where “and” joins values, the source holds several entries; their conditions need not be identical. Identical values can stand only once. Like-named read-outs stand apart in the source and are kept apart here.
# Experiments:
# [1] = Formation of F-18-fluoride / isotopic exchange in mouse urine; type: in vitro ADME, mice
# Protocol: For in vivo μmetabolism studies, 8-12 MBq (<0.6 nmol) of the respective ^18F-labeled ligand (rhPSMA-7.1-7.4) was injected into the tail vein of female healthy CB17-SCID mice (n=4). Mice were left under anesthesia for 30 min and the urine was collected using a bladder catheter. Urine samples were pooled and centrifuged for 5 min at 9000 rpm to remove suspended solids. The supernatant was directly used for radio-HPLC analysis with the above mentioned conditions. […] Additionally, this experiment was carried out with the addition of excess Na^19F (0.5 μmop and incubation for 2 h with ^18F-labeled rhPSMA-7.3.
# For this purpose normal mice were used. Urine samples were collected by means of a catheter over a period of 30 min. The urine was centrifuged and directly subjected to HPLC and TLC.
# Consequently, fresh and nonradioactive urine samples collected from normal mice were incubated with [F-18]rhPSMA7.x for various time periods (see legend to FIG. 21).
# To further support the hypothesis, 500 nmol cold F-19-fluoride was added to fresh and nonradioactive urine of mice, followed by the addition of [F-18]rhPSMA7.3 and incubation for 2 h. According to the hypothesis, the high concentration of [F-19]fluoride should result in the formation of a significant amount of [F-18]fluoride.
# PSMA = biological target: T1, PSMA (Homo sapiens, UniProt Q04609); assay: Determination of IC50: PSMA affinity, competitive binding on LNCaP cells against ([125I]I-BA)KuE; details: LNCaP cells, [125I]IB-KuE c=0.2 nM, 1 h, 4° C.
# T1 construct: endogenous in cells; host or cells: LNCaP cells
# Protocol: Data are expressed as mean±SD (n=3, in 3 different experiments).
# After removal of the culture medium, the cells were treated once with 500 μL of HBSS (Hank's balanced salt solution, Biochrom, Berlin, Germany, with addition of 1% bovine serum albumin (BSA)) and left 15 min on ice for equilibration in 200 μL HBSS (1% BSA). […] Quantification of bound and free radioligand was accomplished in a γ-counter.
# human serum albumin = biological target: T2, human serum albumin (Homo sapiens, UniProt P02768); assay: HSA binding on Chiralpak HSA column; type: in vitro ADME; details: Chiralpak HSA column (50 × 3 mm, 5 μm)
# T2 construct: purchased H13H-2433
# patients = assay: Human biodistribution and uptake in tumor lesions (PET/CT, SUV); type: in vivo; details: for ratio SUVmax to background, mean / ratio SUVmean to background, mean: human PET/CT, background gluteal muscle
# Protocol: Human biodistribution was estimated by analysing clinical ^18F-rhPSMA-7- and ^18F-rhPSMA-7.3-PET/CT exams in 47 and 32 patients, respectively.
# The mean and maximum standardized uptake values (SUVmean/SUVmax) were determined for background (gluteal muscle), normal organs (salivary glands, blood pool, lung, liver, spleen, pancreas, duodenum, kidney, bladder, bone) and three representative tumor lesions. Tumor uptake was analyzed in 89 lesions (26 primary tumors/local recurrences, 23 bone, 38 lymph node and 2 visceral metastases) and 63 lesions (14 primary tumors/local recurrences, 30 bone, 18 lymph node and 1 visceral metastases) for ^18F-rhPSMA-7 and ^18F-rhPSMA-7.3, respectively.
# Organ-background and Tumor-background ratios were calculated.
# [2] = clinical PET/CT, gluteal muscle
# [3] = clinical PET/CT, non-diseased bone
# [4] = clinical PET/CT, listed as 18F-rhPSMA-7.3
# T1 sequence (Q04609 whole entry): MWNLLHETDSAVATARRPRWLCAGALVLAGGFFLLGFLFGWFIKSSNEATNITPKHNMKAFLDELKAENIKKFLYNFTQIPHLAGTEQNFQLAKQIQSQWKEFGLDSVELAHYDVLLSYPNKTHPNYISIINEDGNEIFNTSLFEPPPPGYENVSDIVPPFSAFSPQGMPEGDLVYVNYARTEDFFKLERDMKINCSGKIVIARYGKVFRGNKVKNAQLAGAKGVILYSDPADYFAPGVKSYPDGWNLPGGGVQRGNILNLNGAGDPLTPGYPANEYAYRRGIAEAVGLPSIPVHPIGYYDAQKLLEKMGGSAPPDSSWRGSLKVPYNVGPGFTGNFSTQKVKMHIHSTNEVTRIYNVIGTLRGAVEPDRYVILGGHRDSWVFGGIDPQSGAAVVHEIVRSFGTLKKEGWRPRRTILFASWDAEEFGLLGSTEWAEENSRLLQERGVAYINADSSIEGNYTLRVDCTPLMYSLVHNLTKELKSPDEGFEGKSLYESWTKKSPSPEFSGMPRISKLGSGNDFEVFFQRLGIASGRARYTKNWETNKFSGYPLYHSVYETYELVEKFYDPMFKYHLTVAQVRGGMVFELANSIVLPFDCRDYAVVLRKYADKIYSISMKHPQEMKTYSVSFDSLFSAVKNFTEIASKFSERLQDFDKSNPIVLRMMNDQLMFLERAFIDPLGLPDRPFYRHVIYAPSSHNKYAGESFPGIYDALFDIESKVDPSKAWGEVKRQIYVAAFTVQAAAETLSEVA
# T2 sequence (P02768 25-609): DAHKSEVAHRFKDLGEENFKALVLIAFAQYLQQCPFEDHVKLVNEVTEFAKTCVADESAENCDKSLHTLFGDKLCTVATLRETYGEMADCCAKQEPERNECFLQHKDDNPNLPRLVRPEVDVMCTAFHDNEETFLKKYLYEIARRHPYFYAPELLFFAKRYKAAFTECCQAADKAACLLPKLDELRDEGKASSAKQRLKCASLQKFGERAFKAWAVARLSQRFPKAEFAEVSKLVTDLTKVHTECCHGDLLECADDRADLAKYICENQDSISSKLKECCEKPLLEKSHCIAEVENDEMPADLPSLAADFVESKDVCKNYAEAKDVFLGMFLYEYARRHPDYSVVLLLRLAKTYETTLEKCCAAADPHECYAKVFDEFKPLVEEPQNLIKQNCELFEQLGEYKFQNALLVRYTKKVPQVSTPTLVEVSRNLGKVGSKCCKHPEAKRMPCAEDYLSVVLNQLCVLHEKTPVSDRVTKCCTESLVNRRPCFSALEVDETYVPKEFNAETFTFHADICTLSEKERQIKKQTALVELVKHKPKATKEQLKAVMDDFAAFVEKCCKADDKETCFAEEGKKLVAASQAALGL
compound,measurement,setting,value
"CC(C)(C)[Si](F)(c1ccc(C(=O)NC[C@@H](NC(=O)CC[C@@H](C(=O)O)N2CCN(CC(=O)[O-])CCN(CC(=O)[O-])CCN(CC(=O)[O-])CC2)C(=O)N[C@H](CCCCNC(=O)CCC(=O)NCCC[C@@H](NC(=O)CC[C@H](NC(=O)N[C@@H](CCC(=O)O)C(=O)O)C(=O)O)C(=O)O)C(=O)O)cc1)C(C)(C)C.[Ga+3] [rhPSMA7.3, [^19F][^natGa]D-Dap-S-DOTAGA-rhPSMA7]",radioactivity converted to [F-18]fluoride,"[1]; fresh nonradioactive mouse urine + 0.5 μmol (500 nmol) cold F-19-fluoride, incubation 2 h",98.5%
same,[F-18]rhPSMA7.3 proportion in radioactive urine after addition of 5 nmol [F-19]rhPSMA7-3,[1]; room temperature,85.8%
same,[F-18]rhPSMA7.3 proportion in radioactive urine before addition of cold tracer,[1]; urine with 20.6% [F-18]Fluoride,79.4%
same,IC50,"PSMA; HBSS+1% BSA, single measurements, read-out: individual IC50 measurements",3.17 nM and 2.91 nM and 5.35 nM and 5.74 nM and 4.59 nM and 4.45 nM
same,IC50,"PSMA; mean of individual measurements, read-out: IC50 Mean",4.37 nM
same,HSA Binding,human serum albumin,96.9%
same,"ratio SUVmax to background, mean",patients; bladder,3.1
same,"ratio SUVmean to background, mean",patients; bladder,3.1
same,"ratio SUVmax to background, mean",patients; bloodpool,2.8
same,"ratio SUVmean to background, mean",patients; bloodpool,2.9
same,"ratio SUVmax to background, mean",patients; bone,2.0
same,"ratio SUVmean to background, mean",patients; bone,2.1
same,"SUVmax bladder, max",patients; clinical PET/CT,6.0
same,"SUVmax bladder, mean",patients; clinical PET/CT,3.1
same,"SUVmax bladder, min",patients; clinical PET/CT,1.1
same,"SUVmax bloodpool, max",patients; clinical PET/CT,3.9
same,"SUVmax bloodpool, mean",patients; clinical PET/CT,2.8
same,"SUVmax bloodpool, min",patients; clinical PET/CT,1.9
same,"SUVmax duodenum, max",patients; clinical PET/CT,32.2
same,"SUVmax duodenum, mean",patients; clinical PET/CT,16.4
same,"SUVmax duodenum, min",patients; clinical PET/CT,6.1
same,"SUVmax kidney, max",patients; clinical PET/CT,99.9
same,"SUVmax kidney, mean",patients; clinical PET/CT,51.9
same,"SUVmax kidney, min",patients; clinical PET/CT,30.9
same,"SUVmax liver, max",patients; clinical PET/CT,15.4
same,"SUVmax liver, mean",patients; clinical PET/CT,9.7
same,"SUVmax liver, min",patients; clinical PET/CT,4.6
same,"SUVmax lungs, max",patients; clinical PET/CT,1.9
same,"SUVmax lungs, mean",patients; clinical PET/CT,1.1
same,"SUVmax lungs, min",patients; clinical PET/CT,0.7
same,"SUVmax pancreas, max",patients; clinical PET/CT,7.8
same,"SUVmax pancreas, mean",patients; clinical PET/CT,4.2
same,"SUVmax pancreas, min",patients; clinical PET/CT,2.4
same,"SUVmax parotic gland, max",patients; clinical PET/CT,38.3
same,"SUVmax parotic gland, mean",patients; clinical PET/CT,24.6
same,"SUVmax parotic gland, min",patients; clinical PET/CT,11.2
same,"SUVmax spleen, max",patients; clinical PET/CT,22.5
same,"SUVmax spleen, mean",patients; clinical PET/CT,11.4
same,"SUVmax spleen, min",patients; clinical PET/CT,5.0
same,"SUVmax submandibular gland, max",patients; clinical PET/CT,47.4
same,"SUVmax submandibular gland, mean",patients; clinical PET/CT,28.4
same,"SUVmax submandibular gland, min",patients; clinical PET/CT,14.6
same,"SUVmean bladder, max",patients; clinical PET/CT,4.1
same,"SUVmean bladder, min",patients; clinical PET/CT,0.7
same,"SUVmean bloodpool, max",patients; clinical PET/CT,2.5
same,"SUVmean bloodpool, min",patients; clinical PET/CT,1.3
same,"SUVmean duodenum, max",patients; clinical PET/CT,23.0
same,"SUVmean duodenum, mean",patients; clinical PET/CT,11.0
same,"SUVmean duodenum, min",patients; clinical PET/CT,3.0
same,"SUVmean kidney, max",patients; clinical PET/CT,70.6
same,"SUVmean kidney, mean",patients; clinical PET/CT,35.5
same,"SUVmean kidney, min",patients; clinical PET/CT,20.7
same,"SUVmean liver, max",patients; clinical PET/CT,12.3
same,"SUVmean liver, mean",patients; clinical PET/CT,7.3
same,"SUVmean liver, min",patients; clinical PET/CT,3.2
same,"SUVmean lungs, max",patients; clinical PET/CT,1.1
same,"SUVmean lungs, mean",patients; clinical PET/CT,0.7
same,"SUVmean lungs, min",patients; clinical PET/CT,0.4
same,"SUVmean pancreas, max",patients; clinical PET/CT,5.2
same,"SUVmean pancreas, mean",patients; clinical PET/CT,2.8
same,"SUVmean pancreas, min",patients; clinical PET/CT,1.6
same,"SUVmean parotic gland, max",patients; clinical PET/CT,25.0
same,"SUVmean parotic gland, mean",patients; clinical PET/CT,16.0
same,"SUVmean parotic gland, min",patients; clinical PET/CT,8.2
same,"SUVmean spleen, max",patients; clinical PET/CT,17.9
same,"SUVmean spleen, mean",patients; clinical PET/CT,8.5
same,"SUVmean spleen, min",patients; clinical PET/CT,3.7
same,"SUVmean submandibular gland, max",patients; clinical PET/CT,33.4
same,"SUVmean submandibular gland, mean",patients; clinical PET/CT,19.6
same,"SUVmean submandibular gland, min",patients; clinical PET/CT,10.4
same,tracer retention in the bladder compared with ^18F-rhPSMA-7,patients; clinical PET/CT,significantly lower
same,uptake in tumor lesions compared with ^18F-rhPSMA-7,patients; clinical PET/CT,significantly higher
same,"SUVmax background, max",patients; [2],1.7
same,"SUVmax background, mean",patients; [2],1.0
same,"SUVmax background, min",patients; [2],0.6
same,"SUVmean background, max",patients; [2],1.1
same,"SUVmean background, mean",patients; [2],0.7
same,"SUVmean background, min",patients; [2],0.4
same,"SUVmax bone, max",patients; [3],3.4
same,"SUVmax bone, mean",patients; [3],2.1
same,"SUVmax bone, min",patients; [3],1.1
same,"SUVmean bone, max",patients; [3],2.2
same,"SUVmean bone, mean",patients; [3],1.3
same,"SUVmean bone, min",patients; [3],0.7
same,"SUVmax tumor, max","patients; clinical PET/CT, tumor lesions",316.0
same,"SUVmax tumor, mean","patients; clinical PET/CT, tumor lesions",44.0
same,"SUVmax tumor, min","patients; clinical PET/CT, tumor lesions",2.4
same,"SUVmean tumor, max","patients; clinical PET/CT, tumor lesions",224.1
same,"SUVmean tumor, min","patients; clinical PET/CT, tumor lesions",1.6
same,"SUVmean tumor, mean","patients; clinical PET/CT, tumor lesions, listed as 18F-rhPSMA-7.3",32.5±42.7 and 32.5
same,"SUVmean bladder, mean",patients; [4],2.0 and 2.0±0.8
same,"SUVmean bloodpool, mean",patients; [4],1.9 and 1.8
same,"ratio SUVmax to background, mean",patients; duodenum,16.2
same,"ratio SUVmean to background, mean",patients; duodenum,17.1
same,"ratio SUVmax to background, mean",patients; kidney,51.8
same,"ratio SUVmean to background, mean",patients; kidney,55.6
same,"ratio SUVmax to background, mean",patients; liver,9.7
same,"ratio SUVmean to background, mean",patients; liver,11.4
same,"ratio SUVmax to background, mean",patients; lungs,1.0
same,"ratio SUVmean to background, mean",patients; lungs,1.0
same,"ratio SUVmax to background, mean",patients; pancreas,4.1
same,"ratio SUVmean to background, mean",patients; pancreas,4.4
same,"ratio SUVmax to background, mean",patients; parotid gland,24.7
same,"ratio SUVmean to background, mean",patients; parotid gland,25.2
same,"ratio SUVmax to background, mean",patients; spleen,11.4
same,"ratio SUVmean to background, mean",patients; spleen,13.3
same,"ratio SUVmax to background, mean",patients; submandibular gland,28.2
same,"ratio SUVmean to background, mean",patients; submandibular gland,30.6
same,"ratio SUVmax to background, mean",patients; tumor lesions,43.6
same,"ratio SUVmean to background, mean",patients; tumor lesions,50.8
